Patent US9212391B2, “Method for determining DNA fragmentation in microorganisms” (Universidad Autonoma de Madrid, priority 2006, dated 2015)
In brackets after ≈: the same amount, converted by molar mass. Entries after “also recorded” stand apart in the source; their conditions may differ. Like-named read-outs stand apart in the source and are kept apart here.

Experiments:
[1] = system: Escherichia coli strain TG1 (sensitive strain); assay: DNA fragmentation / DNA damage level by the process of the invention (microgel, lysis, SYBR Gold); conditions: for DNA damage (in words): 300 micrograms/ml
[2] = system: Escherichia coli strain TG1 (sensitive strain); conditions: for Vital Stain Empty Capsules, Sensitive Strain: 40 minutes
[3] = system: Escherichia coli strain resistant to ciprofloxacin; assay: Growth inhibition MIC (commercial test), resistant strain; assay type: cell-based; conditions: maximum concentration of the commercial test
[4] = system: Escherichia coli strain sensitive (TG1); assay: Growth inhibition MIC (commercial test), sensitive strain; assay type: cell-based; conditions: read-out: minimum inhibitory concentration (MIC) of growth
[5] = system: Escherichia coli strain resistant to ciprofloxacin; conditions: 40 minutes, LB medium
[6] = 300 μg/ml, 40 min, exponential phase in LB medium

gentamicin
DNA Fragmentation (percentage of bacteria with fragmented DNA) [1, 6]: 3.70% | Vital Stain Empty Capsules [2, 6]: 0.50% | Vital Stain Permeable [2, 6]: 10.00%

OO [H2O2, hydrogen peroxide]
DNA Fragmentation (percentage of bacteria with fragmented DNA) ([1]; 10 mM, 10 min): 100.00% | DNA fragmentation (in words) ([1]; 10 mM, 10 minutes): massive Escherichia coli DNA fragmentation | Vital Stain Empty Capsules ([2]; 10 mM, 10 min): 0.30% | Vital Stain Permeable ([2]; 10 mM, 10 min): 5.00%

CC1(C)S[C@@H]2[C@H](NC(=O)[C@H](N)c3ccccc3)C(=O)N2[C@H]1C(=O)O [Ampicillin, ampicillin]
DNA Fragmentation (percentage of bacteria with fragmented DNA) [1, 6]: 4.20% | DNA damage (in words) ([1]; 20 minutes): differences were not observed with respect to the control; also recorded: DNA fragments are not observed | DNA damage (in words) ([1]; 24 hours): massive presence of punctiform degraded DNA fragments; also recorded: the bottom is covered with DNA fragments | Vital Stain Empty Capsules [2, 6]: 5.00% | Vital Stain Empty Capsules ([2]; 300 micrograms/ml, 20 minutes): 0.67% | Vital Stain Empty Capsules ([2]; 300 micrograms/ml, 24 hours): 75.97%

O=C(O)c1cn(C2CC2)c2cc(N3CCNCC3)c(F)cc2c1=O [Ciprofloxacin, ciprofloxacin]
minimum incubation time at which evident DNA damage was detected ([1]; 1 μg/ml): 5 min | DNA Fragmentation (percentage of bacteria with fragmented DNA) ([1]; 25 μg/ml, 40 min): 100.00% | DNA damage level ([1]; 0.006 micrograms/ml, 40 minutes): intermediate between level 1 and 2 | minimum time of incubation to detect a minimal effect at DNA level (incl. […] processing) ([1]; 1 microgram/ml): 6.5 min | DNA damage level ([1]; 10 micrograms/ml for 40 minutes, immediately after the treatment (0 min after wash)): 3-4 | size of the bacterial capsules versus the other assayed times ([1]; 10 micrograms/ml for 40 minutes, then 60 and 90 minutes in ciprofloxacin-free medium, image analysis): increases about double | time in antibiotic-free medium at which a statistically significant decrease of the fragment diffusion halo begins to be detected ([1]; 10 micrograms/ml for 40 minutes, then washed, image analysis, p<0.05): 15 min | MIC [3]: > 32 µg/mL | Vital Stain Empty Capsules, Sensitive Strain ([2]; 0.003 μg/ml, exponential growth in LB medium): 0.70% | Vital Stain Empty Capsules, Sensitive Strain ([2]; 0.006 μg/ml, exponential growth in LB medium): 0.76% | Vital Stain Empty Capsules, Sensitive Strain ([2]; 0.012 μg/ml, exponential growth in LB medium): 1.06% | Vital Stain Empty Capsules, Sensitive Strain ([2]; 0.100 μg/ml, exponential growth in LB medium): 1.40% | Vital Stain Empty Capsules, Sensitive Strain ([2]; 0.50 μg/ml, LB medium): 0.05% | Vital Stain Empty Capsules, Sensitive Strain ([2]; 1.00 μg/ml, LB medium): 0.00% | Vital Stain Empty Capsules, Sensitive Strain ([2]; 2.50 μg/ml, LB medium): 0.15% | Vital Stain Empty Capsules, Sensitive Strain ([2]; 10.00 μg/ml, LB medium): 0.48% | Vital Stain Empty Capsules ([2]; 25 μg/ml, 40 min): 0.30% | MIC [4]: 0.012 µg/mL (≈ 0.0362 µM) | Vital Stain Empty Capsules, Resistant Strain ([5]; 0.50 μg/ml): 0.00% | Vital Stain Empty Capsules, Resistant Strain ([5]; 1.00 μg/ml): 0.10% | Vital Stain Empty Capsules, Resistant Strain ([5]; 2.50 μg/ml): 0.10% | Vital Stain Empty Capsules, Resistant Strain ([5]; 10.00 μg/ml): 0.15%
